What was measured:
Assay type in all cases: cell-based, human
cyclin D1 promoter = experiment: ChIP assay, cyclin D1 promoter in SW480 cells; conditions: 25 μM
Procedure: FIG. 5. COMPOUND 1 inhibits the expression of cyclin D1. • A. Cyclin D1 levels are decreased with COMPOUND 1 treatment. Western blot analysis was performed on 25 μg of SW480 whole cell lysates treated for 4, 8, or 24 hours with either 25 μM of COMPOUND 1 or control (0.5% DMSO). Immunoblotting was performed using anti-Cyclin D1 antibodies (Santa Cruz Biotechnology Inc.). • B. In vivo occupancy of cyclin D1 and c-myc promoters by CBP and p300. […] ChIP assays were performed on promoter of c-myc from SW480 cells which was treated for 8 hours with COMPOUND 1 (25 μM) or control (0.5% DMSO). CBP (AC-26, a generous gift from Dr. David Livingston, Harvard University, Boston, Mass.) or p300 (C-20, Santa Cruz Biotechnology Inc.) specific antibodies were used to evaluate the promoter occupancy by CBP or p300 in presence of COMPOUND 1 or control (DMSO) treatment.
Formaldehyde cross-linking and chromatin immunoprecipitation assays of SW480 cells were performed as described previously (Barlev et al., “Acetylation of p53 activates transcription through recruitment of coactivators/histone acetyltransferases,” Mol. Cell 8:1243-54 (2001); El-Osta et al., “Analysis of chromatin-immunopurified MeCP2-associated fragments,” Biochem. Biophys. Res. Commun. 289:733-37 (2001); Shang et al., “Formation of the androgen receptor transcription Complex,” Mol. Cell 9:601-10 (2002)). […]

SW480 cells = experiment: FACS cell cycle analysis (propidium iodide), SW480 cells; conditions: 25 μM, 24 hours
Procedure: (§1) FIG. 6. • A. COMPOUND 1 arrests cells in G1. FACS analysis was performed on SW480 (lower panel) and HCT116 (upper panel) cells treated for 24 hours with either COMPOUND 1 (25 μM) (right) or control (0.5% DMSO (left). 5.5×10^6 cells were fixed and stained with propidium iodide (PI). G0/G1, S, and G2/M are indicated by arrows. • B. COMPOUND 1 selectively activates caspases in colon carcinoma cell lines. SW480 and HCT116 (left graph) cells (10^5) along with the normal colonocytes, CCD18Co (right graph) were treated with either control (0.5% DMSO) or COMPOUND 1 (25 μM). 24 hours post treatment, cells were lysed and the caspase-3/7 enzymatic activities were measured. Relative fluorescence units (RFU) were calculated by subtracting the unit values of the blank (control, without cells) from the treated samples (COMPOUND 1 or control) and plotted.
(§2) For FACS analysis, approx. 5×10^6 cells from PNRI-treated or vehicle-treated were fixed with 70% chilled ethanol and stored at −20° C. for at least 30 minutes. […] 10,000 stained cells for each sample were acquired using Beckman Coulter EPICS XL-MCL Flow Cytometry and the percentage of cells in different phase of the cell cycle was determined by Expo32 ADC software (Coulter Corporation, Miami, Fla., 33196). […]

HCT116 cells = experiment: FACS cell cycle analysis (propidium iodide), HCT116 cells; conditions: 25 μM, 24 hours
Procedure: as §1, §2

[1] = test system: caspase-3/7 in CCD18Co cells; experiment: Caspase-3/7 activity assay, normal colonocytes CCD18Co; conditions: 25 μM, 24 hours
Procedure: as §1
SW480, HCT116, and CCD18Co cells were plated at 10^5 cells per well (96-well plates) for 24 hours prior to treatment. 25 μM of COMPOUND 1 or control (0.5% DMSO) was added to each well. 24 hours post treatment, cells were lysed and caspase activity was measured using a caspase-3/7 activity kit (Apo-One Homogeneous caspase-3/7 assay, #G77905, Promega). Relative fluorescence units (RFU) were obtained by subtracting the unit values of the blank (control, without cells) from the experimental measured values. […]

With `O=C1C(Cc2ccc(O)cc2)N2C(=O)CCN(C(=O)NCc3ccccc3)C2CN1Cc1cccc2ccccc12` (stereo not shown) [COMPOUND 1] the “Association of CBP with the cyclin D1 promoter” value (cyclin D1 promoter) was “completely and selectively blocks”, the “Cell cycle distribution (DNA content by FACS)” value (SW480 cells) was “increased accumulation at G1/S-phase” and the “Cell cycle distribution (DNA content by FACS)” value (HCT116 cells) was “increased accumulation at G1/S-phase”. For the same molecule, the Caspase activation [1] was “not in normal colonocytes”.

Reference: patent US7531320B2, “Modulation of β-catenin/TCF-activated transcription” (priority 2003, dated 2009)
